Consider 1 compound from publication PMC7617869, “Molecular glues that inhibit deubiquitylase activity and inflammatory signaling” (Nature Structural & Molecular Biology, 2025).

The structures appear in SMILES notation. Values joined by “and” are separate entries in the source; they are usually repeats but may differ in a detail not shown here. Equal values may be shown once.

For one test, the target named is T1, BRISC (Homo sapiens, UniProt P46736+Q15018+Q9NXR7).
T1 construct: made in house; host or cells: Spodoptera frugiperda (Sf9) insect cells, MultiBac
The experiment in a line: BRISC DUB activity assay (IQF K63-linked diubiquitin). Particulars: for Normalised V0: replicate columns. The format is biochemical. The method, then: IQF assays were performed in DUB reaction buffer containing 50 mM HEPES–NaOH pH 7.0, 100 mM NaCl, 0.1 mg ml^−1 BSA, 1 mM DTT and 0.03% v/v Brij-35. […] The final concentration of BRISC WT, all BRISC mutants, HsBRISCΔLoop, MmBRISC and DrBRISCΔNΔC was 1 nM. Other enzymes were tested at the following concentrations: 5 nM ARISC (FL), 10 nM CfBRISCΔNΔC, 250 nM AMSH* (ref. [43]), 500 nM USP2 and 1 μM trypsin (Sigma, 9002-07-7). For Michaelis–Menten experiments, 1 nM BRISC with 0–1 μM IQF K63-linked diubiquitin substrate was used. Michaelis–Menten analyses and Lineweaver–Burk plots were calculated using GraphPad Prism (version 9.0).
To assess enzymatic activity, BRISC complexes were diluted to concentrations between 1 nM and 50 nM. […] Then, 20-μl enzyme reactions were carried out in 384-well black flat-bottom low-flange plates (Corning, 35373). DUB activity was measured using IQF K63-linked diubiquitin (LifeSensors, DU6303) at 50 nM. Cleaved diubiquitin was monitored by measuring fluorescence intensity (excitation, 544 nm; emission, 575 nm; dichroic mirror, 560 nm). Fluorescence intensity was measured every minute for 30 min at 30 °C. Fluorescence intensity units were plotted against time to generate a linear reaction progress curve, where the initial velocity (V0) corresponds to the gradient of the curve (typically achieved within 15 min). IC50 values were calculated using the GraphPad Prism (version 9.0) built-in dose–response equation for inhibitor concentration versus response (variable slope).

For test [1], the system named is IFNAR1 cell surface levels in sgROSA MCF10A cells. Description: MCF10A sgROSA IFNAR1 cell surface levels (FACS). Particulars: IFN + compound; three replicates. The format is cell-based, human. Here is the method:
To study the direct effect of BRISC DUB inhibitors, IFNAR1 surface levels were measured using flow cytometry (FACS) analysis. For this purpose, MCF10A WT and MCF10A BRCC45 KO cells expressing […]
BRCC45 WT or BRCC45 R137A were used. […]
minutes prior to the addition of 50 ng/mL of hIFN-Iα for various time points (45 minutes and 90 minutes).
After IFN treatment, cells were dissociated from plate using cell dissociation Buffer (ThermoFisher Scientific, #13150016) and were stained with LIVE/DEAD™ Fixable Violet Dead Cell Stain Kit, for 405 nm excitation (ThermoFisher Scientific, #L34963) for 30 minutes, as per the kit protocol. The cells were then washed using FACS buffer (DPBS, 1% BSA, 2 mM EDTA, 0.09% sodium azide) and transferred to 96-well round bottom plates. Resuspended cells were divided into three repeats for each sample, each was surface stained for 1 hour at 4 °C with: 1. Human IFN-alpha/beta R1 Antibody (R&D systems, #MAB245), 2. Mouse IgG1 Isotype Control (R&D systems, #MAB002), 3. FACS buffer (control cells).
Following incubation, cells were washed once with FACS buffer and were labelled for 30 minutes at 4 °C with either Biotin-SP-conjugated AffiniPure Donkey Anti-Mouse IgG (H+L) (Jackson Immunoresearch Laboratories) for samples 1 and 2 or with FACS buffer for sample 3. Cells were washed twice with FACS buffer and were labelled for 15 minutes at 4 °C with either R-Phycoerythrin-conjugated Streptavidin (Jackson Immunoresearch Laboratories) for samples 1 and 2 or with FACS buffer for sample 3. Cells were washed 3 times with FACS buffer and were analysed by FACS (MACSQuant, Miltenyi Biotec). For each sample from group 1 the Geo mean fluorescence intensity (MFI) of its isotype sample was reduced. IFNAR1 cell surface percentage was calculated by 100*(MFI

Turning to `Cn1cc(NC(=O)c2c(Cl)cccc2Cl)c(C(=O)NC2CCN(C(=O)c3c(Cl)cccc3Cl)CC2)n1` [AP-5-145], at BRISC (IQF diubiquitin assay), the “inhibition of BRISC DUB activity (in words)” value is reported as “no inhibitory effect”. For the same compound, the “Normalised V0” value on BRISC ([Inhibitor] 0.013 μM) was 0.9159 and 1.143 and 0.9058 and 0.9388; on BRISC ([Inhibitor] 0.02 μM), 0.9923 and 1.0109; on BRISC ([Inhibitor] 0.0399999 μM), 0.8997 and 0.9429; at BRISC ([Inhibitor] 0.0599997 μM), 0.9873 and 1.113; at BRISC ([Inhibitor] 0.0799994 μM), 0.9492 and 1.054; on BRISC ([Inhibitor] 0.119998 μM), 0.9627 and 1.064. In addition, the “Normalised V0” value is 0.9243 and 0.9333 on BRISC ([Inhibitor] 0.199996 μM); 0.9206 and 1.055 on BRISC ([Inhibitor] 0.499975 μM); 0.5226 and 1.107 at BRISC ([Inhibitor] 0.799936 μM); 0.877 and 1.051 at BRISC ([Inhibitor] 1.25984 μM); 0.8804 and 1.0497 at BRISC ([Inhibitor] 1.9996 μM); 0.8796 and 0.9314 at BRISC ([Inhibitor] 3.159 μM). Moreover, the “Normalised V0” value is 1.075 and 0.9343 at BRISC ([Inhibitor] 5.19739 μM); 0.9828 and 1.083 on BRISC ([Inhibitor] 7.99364 μM); 1.017 and 1.039 on BRISC ([Inhibitor] 12.7839 μM); 1.018 and 0.9724 on BRISC ([Inhibitor] 19.96 μM); 0.9031 and 1.019 on BRISC ([Inhibitor] 31.4999 μM); 0.9135 and 0.9224 at BRISC ([Inhibitor] 50.147 μM). Further, the “Normalised V0” value is 0.8955 and 0.9782 on BRISC ([Inhibitor] 79.7601 μM); 0.8989 and 0.9064 at BRISC ([Inhibitor] 125.99 μM); 0.8256 and 0.9679 at BRISC ([Inhibitor] 199.922 μM). Moreover, the “IFNAR1 cell surface levels” value in test [1] was 50.5911 and 49.9799 and 55.4831.
